Activity calls are given as the source filed them. The rule behind the calls is not given here.
Tests used:
Assay type in all cases: cell-based
HeLa [1] = experiment: Cytotoxicity against human HeLa cells after 3 days by MTT assay; settings: 72 h
[2] = target: T1, Proteasome Macropain subunit MB1 (Homo sapiens, UniProt P28074); experiment: Inhibition of 20s constitutive proteasome beta5 chymotrypsin-like activity in human erythrocytes using Suc-Leu-Leu-ValTyr-MCA as substrate preincubated for 10 mins followed by substrate addition and measured after 6 hrs by fluorescence assay
T1 sequence (P28074 whole entry): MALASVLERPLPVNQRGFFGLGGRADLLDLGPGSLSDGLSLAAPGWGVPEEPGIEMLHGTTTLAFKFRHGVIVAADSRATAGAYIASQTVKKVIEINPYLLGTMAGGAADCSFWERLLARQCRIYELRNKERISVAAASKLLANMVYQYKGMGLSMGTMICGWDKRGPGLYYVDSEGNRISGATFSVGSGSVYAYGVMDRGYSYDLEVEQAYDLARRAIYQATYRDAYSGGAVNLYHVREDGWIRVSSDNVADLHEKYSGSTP

[3] = target: T2, Proteasome subunit beta type-8 (Homo sapiens, UniProt P28062); experiment: Inhibition of 20s immunoproteasome LMP7 in human erythrocytes using Suc-Leu-Leu-ValTyr-MCA as substrate preincubated for 10 mins followed by substrate addition and measured after 6 hrs by fluorescence assay
T2 sequence (P28062 whole entry): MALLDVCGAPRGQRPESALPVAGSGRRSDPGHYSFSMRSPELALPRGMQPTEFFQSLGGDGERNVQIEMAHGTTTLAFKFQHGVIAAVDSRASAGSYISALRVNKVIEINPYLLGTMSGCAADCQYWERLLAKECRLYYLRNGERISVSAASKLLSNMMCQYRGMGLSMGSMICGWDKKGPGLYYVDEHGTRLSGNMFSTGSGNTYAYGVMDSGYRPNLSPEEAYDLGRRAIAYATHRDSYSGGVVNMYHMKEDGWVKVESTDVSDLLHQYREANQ

[4] = target: T3, Proteasome subunit beta type-10 (Homo sapiens, UniProt P40306); experiment: Inhibition of 20s immunoproteasome MECL1 in human erythrocytes using Suc-Leu-Leu-ValTyr-MCA as substrate preincubated for 10 mins followed by substrate addition and measured after 6 hrs by fluorescence assay
T3 sequence (P40306 whole entry): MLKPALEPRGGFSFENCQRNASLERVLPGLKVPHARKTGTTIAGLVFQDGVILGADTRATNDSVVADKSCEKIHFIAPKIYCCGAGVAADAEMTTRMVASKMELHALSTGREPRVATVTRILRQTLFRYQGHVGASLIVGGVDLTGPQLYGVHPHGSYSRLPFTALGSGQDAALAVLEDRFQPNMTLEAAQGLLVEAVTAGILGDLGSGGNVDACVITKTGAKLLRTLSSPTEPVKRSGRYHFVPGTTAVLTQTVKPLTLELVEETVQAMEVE

[5] = target: T4, Proteasome subunit beta type-9 (Homo sapiens, UniProt P28065); experiment: Inhibition of 20s immunoproteasome LMP2 in human erythrocytes using Ac-Pro-Ala-Leu-MCA as substrate preincubated for 10 mins followed by substrate addition and measured after 6 hrs by fluorescence assay
T4 sequence (P28065 whole entry): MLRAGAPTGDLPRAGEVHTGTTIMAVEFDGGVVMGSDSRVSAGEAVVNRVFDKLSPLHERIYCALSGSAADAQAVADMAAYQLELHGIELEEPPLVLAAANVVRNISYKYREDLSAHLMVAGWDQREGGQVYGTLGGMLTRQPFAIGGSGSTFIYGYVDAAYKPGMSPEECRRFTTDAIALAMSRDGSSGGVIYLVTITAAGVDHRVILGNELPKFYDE

[6] = target: T5, Proteasome subunit beta type-10 (Homo sapiens) (UniProt P40306); experiment: Inhibition of 20s immunoproteasome MECL1 in human erythrocytes at 15 uM using Suc-Leu-Leu-ValTyr-MCA as substrate preincubated for 10 mins followed by substrate addition and measured after 6 hrs by fluorescence assay
T5 sequence (whole entry): T3 sequence (P40306 whole entry)

HeLa [7] = experiment: Cytotoxicity against human HeLa cells at 50 uM after 3 days by MTT assay; settings: 72 h

IC50 [2] [µM]	IC50 [3] [µM]	IC50 [4] [µM]	IC50 [5] [µM]	inhibition [6]	SMILES	IC50 (HeLa [1]) [µM]	Activity (HeLa [7])
0.42	0.63	8	0.44	–	C1=C2CN3CCCC/C=C\CC[C@@H]4CN(CCCC/C=C\CC[C@H]1C3)CC[C@@H]24	12	–
1.8	4.1	–	3.1	inactive	C1=C\CCc2cc3c[n+](c2)CCCC/C=C\CC[C@@H]2CN(CCCC/1)CC[C@@H]32	–	Non-Toxic
